Like-named read-outs stand apart in the source and are kept apart here.
What was measured:
Format in all cases: cell-based
[1] = test system: MDA (breast cancer) cells; assay: SRB cytotoxicity assay, MDA; conditions: Homo sapiens, read-out: Cytotoxicity IC50, MDA
Method: (§1) The antiproliferative activity was tested on human primary (SW480) and metastatic (SW620) colon cancer, human prostate cancer (PC3), human liver cancer (HepG2), human breast cancer (MDA), human lung cancer (A549), and human immortalized keratinocyte (HaCaT) cell lines obtained from the American Type Culture Collection (ATCC, Rockville, MD, USA). The cells were cultured in EMEM (SW480 and SW620), RPMI 1640 (PC3) or DMEM High Glucose (HepG2, MDA, A549, and HaCaT) with stable glutamine supplemented with 10% heat-inactivated fetal bovine serum (FBS), penicillin (100 U/mL), and streptomycin (100 µg/mL) in 37 °C and 5% CO2/95% air humified incubator. The cells were grown until 80–90% confluence and then were harvested with 0.25% trypsin and used for the experiments. All the reagents for the cell culture were provided by VWR Chemicals.
(§2) Cytotoxicity was tested with the sulforhodamine B (SRB) assay according to the National Cancer Institute protocol with slight modifications. Briefly, cells were seeded on a 96-well plate (5 × 10^3 cells per well). After 24 h incubation, zero-time control cells were fixed with TCA (final concentration 5%) for 1 h at 4 °C. […] The untreated cells were used as the control. After incubation, the cells were fixed with TCA (final concentration 5%) for 1 h at 4 °C, gently washed 4 times with tap water, and left for drying. The dried fixed cells were incubated with SRB solution (0.05% SRB in 1% acetic acid) for 30 min rt, washed four times with 1% acetic acid, and left for drying. The dried cells were dissolved in 10 mM Tris-base solution (pH 10.5) and the absorbance was read at 510 nm.
(§3) The cell viability was presented as a percent of SRB reduction in the treated cells versus that in control cells. The mean absorbance for control cells was assumed as 100%. No-cell control (blank well) absorbance was assumed as 0%, unless the compound was cytostatic, then 0% referred to zero-time control. The IC50 values were calculated using the GraphPad Prism 10.1.2 (324) (USA) software. The most cytotoxic compounds (8 and 20) were selected for further in vitro experiments.

[2] = test system: HepG2 (liver cancer) cells; assay: SRB cytotoxicity assay, HepG2; conditions: Homo sapiens, read-out: Cytotoxicity IC50, HepG2
Method: as §1, §2, §3

A549 (lung cancer) cells = assay: SRB cytotoxicity assay, A549; conditions: Homo sapiens, read-out: Cytotoxicity IC50, A549
Method: as §1, §2, §3

[3] = test system: SW620 (metastatic colon cancer) cells; assay: SRB cytotoxicity assay, SW620; conditions: Homo sapiens, read-out: Cytotoxicity IC50, SW620
Method: as §1, §2, §3

[4] = test system: PC3 (prostate cancer) cells; assay: SRB cytotoxicity assay, PC3; conditions: Homo sapiens, read-out: Cytotoxicity IC50, PC3
Method: as §1, §2, §3

[5] = test system: SW480 (primary colon cancer) cells; assay: SRB cytotoxicity assay, SW480; conditions: Homo sapiens, read-out: Cytotoxicity IC50, SW480
Method: as §1, §2, §3

[6] = SRB cytotoxicity assay, HaCaT; conditions: human, 48 h culture, mean ± SD, at least three independent experiments, compounds marked * : low solubility, real values might be lower
Method: as §1, §2, §3

[7] = test system: six human cancer cell lines (SW480, SW620, PC3, HepG2, MDA, A549) and HaCaT; assay: SRB cytotoxicity assay, whole panel; conditions: cell line panel
Method: The antiproliferative properties of the studied combretastatin derivatives were tested on six human cancer cell lines, including primary colon (SW480), metastatic colon (SW620), prostate (PC3), liver (HepG2), breast (MDA), and lung (A549) cancer cells, and non-tumor human immortalized keratinocyte cell line (HaCaT) using the sulforhodamine B (SRB) assay. […] No selectivity was observed against the tumor cell lines when compared to that against the non-tumor cell line. Nevertheless, these values were much higher than the IC50 of the reference compounds (<0.2 μM).
as §1, §2, §3

[8] = SRB assay, 48 h culture, mean ± SD, at least three independent experiments, compounds marked * : low solubility, real values might be lower
[9] = HepG2, SRB assay, 48 h culture, mean ± SD, at least three independent experiments, compounds marked * : low solubility, real values might be lower
[10] = A549, SRB assay, 48 h culture, mean ± SD, at least three independent experiments, compounds marked * : low solubility, real values might be lower
[11] = SW-620, SRB assay, 48 h culture, mean ± SD, at least three independent experiments, compounds marked * : low solubility, real values might be lower
[12] = SW480, SRB assay, 48 h culture, mean ± SD, at least three independent experiments, compounds marked * : low solubility, real values might be lower
[13] = HaCaT immortalized keratinocyte cells (non-tumor cell line)

| SMILES | IC50 [1, 8] [µM] | IC50 [2, 9] [µM] | IC50 (A549 (lung cancer) cells; [10]) [µM] | IC50 [3, 11] [µM] | IC50 [4, 8] [µM] | IC50 [5, 12] [µM] | IC50 at 48 h [6, 13] [µM] | Cytotoxicity (in words) [7] | IC50 ([1]; 48 h) [µM] | IC50 ([2]; HepG2, 48 h) [µM] | IC50 (A549 (lung cancer) cells; A549, 48 h) [µM] | IC50 ([3]; SW-620, 48 h) [µM] | IC50 ([4]; 48 h) [µM] | IC50 ([5]; SW480, 48 h) [µM] | IC50 at 48 h ([6]; non-tumor cell line) [µM] |
| --- | --- | --- | --- | --- | --- | --- | --- | --- | --- | --- | --- | --- | --- | --- | --- |
| COc1ccc(/C(=C\c2cc(OC)c(OC)c(OC)c2)C(=O)Nc2ccccc2)cc1Br [Compound 14] | > 100 | > 100 | > 100 | > 100 | > 100 | > 100 | > 100 | – | – | – | – | – | – | – | – |
| COc1ccc(/C(=C\c2cc(OC)c(OC)c(OC)c2)C(=O)NCc2ccccc2[N+](=O)[O-])cc1Br [Compound 15] | > 100 | > 100 | > 100 | > 100 | > 100 | > 100 | > 100 | – | – | – | – | – | – | – | – |
| COc1ccc(/C(=C\c2cc(OC)c(OC)c(OC)c2)C(=O)NCc2ccccc2Cl)cc1Br [Compound 16] | 99.8 ± 3.9 | > 100 | 92.8 ± 7.7 | > 100 | > 100 | > 100 | > 100 | – | – | – | – | – | – | – | – |
| COc1ccc(/C(=C\c2cc(OC)c(OC)c(OC)c2)C(=O)NCc2cccc(Cl)c2)cc1Br [Compound 17] | > 100 | > 100 | > 100 | > 100 | > 100 | > 100 | > 100 | – | – | – | – | – | – | – | – |
| COc1ccc(/C(=C\c2cc(OC)c(OC)c(OC)c2)C(=O)NCc2ccc(Cl)cc2)cc1Br [Compound 18] | 66.7 ± 6.4 | 89.6 ± 24.4 | 62.2 ± 8.6 | > 100 | > 100 | > 100 | > 100 | – | – | – | – | – | – | – | – |
| CCCN(CCC)C(=O)/C(=C/c1cc(OC)c(OC)c(OC)c1)c1ccc(OC)c(Br)c1 [Compound 19] | > 100 | > 100 | > 100 | > 100 | > 100 | > 100 | > 100 | did not show any cytotoxicity | – | – | – | – | – | – | – |
| COc1ccc(/C(=C\c2cc(OC)c(OC)c(OC)c2)C(=O)N2CCOCC2)cc1Br [Compound 21] | > 100 | > 100 | > 100 | > 100 | > 100 | > 100 | > 100 | – | – | – | – | – | – | – | – |
| COc1ccc(/C(=C\c2cc(OC)c(OC)c(OC)c2)C(=O)N(Cc2ccccc2)Cc2ccccc2)cc1Br [Compound 22] | > 100 | > 100 | > 100 | > 100 | > 100 | > 100 | > 100 | – | – | – | – | – | – | – | – |
| COc1cc2c(c(OC)c1OC)-c1ccc(OC)c(=O)cc1[C@@H](NC(C)=O)CC2 [colchicine, reference compound] | – | – | – | – | – | – | – | – | 0.11 ± 0.015 | 0.107 ± 0.025 | 0.094 ± 0.009 | 0.13 ± 0.089 | 0.118 ± 0.047 | 0.166 ± 0.065 | 0.104 ± 0.012 |
| COc1cc([C@@H]2c3cc4c(cc3[C@H](O)[C@H]3COC(=O)[C@H]23)OCO4)cc(OC)c1OC [podophyllotoxin, reference compound] | – | – | – | – | – | – | – | – | 0.0293 ± 0.0028 | 0.0258 ± 0.0056 | 0.0247 ± 0.0039 | 0.0292 ± 0.0078 | 0.0129 ± 0.0015 | 0.0444 ± 0.0022 | 0.0316 ± 0.004 |
